# According to patent US8287902B2, “Enhanced-diffusion capsule” (Rainbow Medical Ltd., priority 2008, dated 2012):
# Test: Maximum plasma concentration of octreotide in rats after endoscopic administration
# Conditions: same administered octreotide level (5 mg)
# Protocol: A control test was conducted on seven control rats. A 5 mg solution of octreotide was endoscopically administered to the control rats, and the resulting maximum plasma concentrations of octreotide in the control rats were measured.
# Octreotide was administered to three test rats using techniques that were in accordance with embodiments of the present invention. A drug layer of 5 mg of octreotide was dried onto the outer layer of each of three capsules, and the capsules were endoscopically placed in the small intestine of the three test rats. The resulting maximum plasma concentrations of octreotide in the test rats were measured.
smiles,measurement,value
C[C@@H](O)[C@@H]1NC(=O)[C@H](CCCCN)NC(=O)[C@@H](Cc2c[nH]c3ccccc23)NC(=O)[C@H](Cc2ccccc2)NC(=O)[C@@H](NC(=O)[C@H](N)Cc2ccccc2)CSSC[C@@H](C(=O)N[C@H](CO)[C@@H](C)O)NC1=O [octreotide],"resultant blood concentration of octreotide, test group (capsule surface) versus control group (solution)",significantly higher
